“Also recorded” adds a separate entry of the source. Read-outs that look alike come from different tables or passages of the source.
What was measured:
[1] = tested on: tamoxifen-resistant MCF7 breast cancer cells; test: Proliferation of tamoxifen-resistant MCF7 cells; assay type: cell-based, human; conditions: 6 days
Description: Values are mean±SD of three separate assays. Cell proliferation assay WST-1 assay (Roche, Basel, Switzerland) was used to quantify cell viability as described (Gong et al., Mol. Cell Endocrinol., 2016, 437:190-200). Absorbance was measured at 450 nm using a VICTOR X5 PerkinElmer 2030 Multilabel Plate Reader. All assays were performed in triplicate.

MCF7 cells = test: Cell proliferation assay (WST-1), MCF7; assay type: cell-based, human; conditions: for IC50: read-out: IC50 MCF7
Description: (§1) All cells were tested for mycoplasma using Real-Time PCR Mycoplasma Detection Kit (Akron Biotech, Boca Raton, FL).
(§2) All assays were performed in triplicate.

DT22 cells = test: Cell proliferation assay (WST-1), DT22; assay type: cell-based, human
Description: as §1, §2

MDA-MB-231 cells = test: Cell proliferation assay (WST-1), MDA-MB-231; assay type: cell-based, human; conditions: inhibition of cell proliferation, read-out: IC50 MDA-MB-231
Description: as §1, §2

FOXM1 protein = target: T1, FOXM1 protein (Homo sapiens, UniProt Q08050); test: Competitive binding of inhibitors to FOXM1 by tr-FRET (Fl-NB-72 probe); conditions: tr-FRET competition with Fl-NB-72; Ki calculated from IC50 (Cheng-Prusoff)
T1 construct: a terbium donor was attached to purified full length FOXM1 through a streptavidin-biotin linker
T1 sequence (Q08050 1-763): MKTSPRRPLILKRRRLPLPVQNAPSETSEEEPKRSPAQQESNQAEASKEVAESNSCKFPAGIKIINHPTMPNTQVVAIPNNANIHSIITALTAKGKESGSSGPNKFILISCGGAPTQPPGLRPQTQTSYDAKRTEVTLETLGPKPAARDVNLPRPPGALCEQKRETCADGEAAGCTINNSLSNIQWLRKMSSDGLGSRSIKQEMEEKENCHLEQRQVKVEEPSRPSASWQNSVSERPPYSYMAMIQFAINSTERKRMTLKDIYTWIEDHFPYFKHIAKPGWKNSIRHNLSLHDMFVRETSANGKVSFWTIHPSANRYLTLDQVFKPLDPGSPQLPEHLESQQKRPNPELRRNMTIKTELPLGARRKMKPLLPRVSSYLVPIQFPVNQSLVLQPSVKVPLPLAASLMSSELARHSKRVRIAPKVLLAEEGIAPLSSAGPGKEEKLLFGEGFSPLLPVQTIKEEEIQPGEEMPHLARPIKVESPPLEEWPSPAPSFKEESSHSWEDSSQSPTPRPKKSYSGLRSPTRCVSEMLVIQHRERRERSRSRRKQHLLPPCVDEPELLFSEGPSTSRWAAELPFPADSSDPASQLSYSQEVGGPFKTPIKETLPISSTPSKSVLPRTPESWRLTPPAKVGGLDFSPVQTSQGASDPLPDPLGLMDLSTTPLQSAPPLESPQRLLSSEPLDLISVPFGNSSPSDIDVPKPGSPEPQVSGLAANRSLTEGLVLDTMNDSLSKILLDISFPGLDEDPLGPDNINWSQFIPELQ
Description: Competitive binding assays of FOXM1 inhibitor binding to FOXM1 by tr-FRET were conducted. All tr-FRET experiments used FRET buffer (20 mM Tris, pH 7.5, 50 mM NaCl, 0.01% NP-40 detergent, 10% glycerol) with 0.3 mg/ml ovalbumin and 0.1 mM butylated hydroxy-anisole added fresh daily. Solutions of the protein, fluorescent probe and inhibitor dilutions were prepared at 3× the final concentrations, the final dilution taking place as they were mixed together on the microtiter plate.
Final concentrations were 10^-5M to 10^-9M, with the last point being buffer only, no inhibitor. Fluorescein-NB-72 (Fl-NB-72) was prepared at 1 mM in DMF and stored at −20° C. It was diluted into plain FRET buffer to give 100 nM in the assay.
Incubations were done in duplicate on black Molecular Devices 96-well microtiter plates. […] To this were added 5 μL of the inhibitor dilutions, mixed and incubated, in the dark, at room temperature, for 1 h. […] Diffusion-enhanced FRET was determined by a parallel incubation without biotin-FOXM1 and subtracted as a background signal. Graphs were prepared using Graph Pad/Prism 4.

[2] = tested on: DT22 triple negative human breast tumor xenografts; test: DT22 triple negative breast tumor xenografts in NSG mice; assay type: in vivo, mouse; conditions: for Tumor growth in vivo, low doses: 5 or 10 mg/kg s.c. every second or third day
Description: In vivo breast cancer xenograft studies For examination of the growth of triple-negative DT22 breast tumors, intact female NOD/SCID-gamma (NSG) mice were used. DT-22 cells (1×10^6 cells/mouse) were injected s.c. into the right axial mammary gland. Mice received s.c. injection or oral gavage daily or every second or third day, as indicated, with vehicle or FOXM1 inhibitor compound, and tumor growth was monitored over time.

[3] = Pharmacokinetic studies in mice after single s.c. or oral dose; conditions: for half-life / AUC(0-t): female, CD-1, mouse, plasma
[4] = after IV administration; cited from earlier work
breast cancer cell lines = test: Proliferation of breast cancer cell lines (panel, line not specified); assay type: cell-based, human; conditions: for IC50: read-out: IC50 for inhibition of proliferation of breast cancer cell lines
Description: as §1, §2

FOXM1 and ERα = test: Cellular level of FOXM1 and ERα (Western blot, mRNA); assay type: cell-based, human; conditions: Western blot over time
Description: In-cell Western and Western blot assays Cells were cultured in 96-well plates at 3000 cells/well, and treated with compounds for the times indicated. Cells were washed twice in PBS, fixed with 4% formaldehyde (Fisher Scientific) solution in PBS, permeabilized in 0.1% Triton X-100 in PBS, blocked with Odyssey Blocking Buffer (LI-COR), and incubated with FOXM1 antibody (GeneTex, 102170) rabbit HC-20 ERa antibody (Santa Cruz, Cat #SC-543) or mouse F10 ERa antibody (Santa Cruz, Cat #SC8002) at 4 C overnight. Both IRDye 800 CW goat anti-rabbit secondary antibody (LI-COR, Cat #926-32211) and Cell Tag 700 (LI-COR, Cat #926-41090) were diluted (1:600) for incubation with cells. Plates were washed and staining signals were quantified and normalized with Cell Tag signals (to control for any differences in cell number per well) using LI-COR Odyssey infrared imaging system. Fold changes in protein levels were calculated relative to the vehicle treated WT samples. Results are the average±SD from at least three independent experiments, each performed with 4 wells per treatment condition. […]
RNA isolation and real-time PCR Total RNA was isolated using TRIzol (Invitrogen) and reverse transcribed using […] reverse transcriptase (New England BioLabs). […] Relative mRNA levels of genes were normalized to the housekeeping gene 36B4, and fold change calculated relative to the vehicle treated samples. […]

[5] = Homo sapiens, MCF7, inhibition of cell proliferation
[6] = Homo sapiens, DT-22, inhibition of cell proliferation
[7] = mice, oral, doses of FIGS. 6A-6B
[8] = mice, s.c., doses of FIGS. 6A-6B
[9] = cell line not specified or several lines

In the case of `CC/C(=C(\c1ccc(O)cc1)c1ccc(OCCN(C)C)cc1)c1ccccc1` [trans-hydroxytamoxifen, reference compound], the “Effect on proliferation of tamoxifen-resistant MCF7 cells” value [1] is reported as “weakly stimulated”.

Compound `C[N+]1(CCCCCCOc2ccc(C(=C3C4CC5CC(C4)CC3C5)c3ccc(OCCCCCC[N+]4(C)CCCC4)cc3)cc2)CCCC1` [NB-68, 1,1′-((((((5r,7r)-adamantan-2-ylidene)methylene)bis(4,1-phenylene))bis(oxy))bis(hexane-6,1-diyl))bis(1-methylpyrrolidin-1-ium) diiodide] has an IC50 (MCF7 cells; [5]) of 800 nM, an IC50 (DT22 cells; [6]) of 700 nM and an IC50 (MDA-MB-231 cells; Homo sapiens, MDA-MB-231) of 1700 nM. For the same compound, the Ki (FOXM1 protein) was 51 nM, the “Tumor growth in vivo, low doses” value [2] was “greatly suppress tumor growth” and the “Growth of DT22 tumor xenografts” value ([2]; s.c., 20 mg/kg every other day for first 10 days then 10 mg/kg every other day) was “greatly suppress tumor growth”. It also gave a half-life ([3]; po, 60 mg/kg) of 18.5 h, an AUC(0-t) ([3]; po, 60 mg/kg, PK p.o. AUC0-48, mice, 60 mg/kg p.o.) of 0.18 µM·h and a half-life ([3]; sc) of 25 to 40 h. For the same compound, the half-life ([3]; sc, 60 mg/kg) was 109 h, the AUC(0-t) ([3]; sc, 60 mg/kg, PK s.c. AUC0-48, mice, 60 mg/kg s.c.) was 289 µM·h and the “Blood levels after oral administration” value [3, 7] was “very low levels”. The “Blood levels after s.c. injection” value [3, 8] was “very high blood levels”.

In the case of `CCN(CC)c1ccc(C(c2ccc(N(CC)CC)cc2)=c2ccc3c(c2)CCc2ccccc2[N+]=3CCCN(C)C)cc1` [Imipramine Blue], the “half-life t1/2” value [4] is given as 0.183 h.

In the case of `C=C(NC(=O)C(=C)NC(=O)c1csc(C2=N[C@@H]3c4csc(n4)[C@H]4NC(=O)c5csc(n5)[C@H]([C@](C)(O)[C@@H](C)O)NC(=O)[C@H]5CSC(=N5)/C(=C/C)NC(=O)[C@H]([C@@H](C)O)NC(=O)c5csc(n5)[C@]3(CC2)NC(=O)[C@H](C)NC(=O)C(=C)NC(=O)[C@H](C)NC(=O)[C@H]([C@@H](C)CC)N[C@@H]2C=Cc3c([C@H](C)O)cc(nc3[C@H]2O)C(=O)O[C@@H]4C)n1)C(N)=O` [thiostrepton, reference compound], the IC50 (MCF7 cells; [5]) is reported as 1400 nM, the IC50 (DT22 cells; [6]) is reported as 3600 nM and the IC50 (breast cancer cell lines; Homo sapiens) is reported as 2000 nM. The “Cellular FOXM1 and ERα proteins” value (FOXM1 and ERα) was “downregulated”.

For `c1cc(C(=C2C3CC4CC(C3)CC2C4)c2ccc(OCCCCCCN3CCCC3)cc2)ccc1OCCCCCCN1CCCC1` [NB-65, 1,1′-((((((5r,7r)-adamantan-2-ylidene)methylene)bis(4,1-phenylene))bis(oxy))bis(hexane-6,1-diyl))dipyrrolidine], the IC50 (MCF7 cells; [5]) was 800 nM, the IC50 (DT22 cells; [6]) was 1000 nM and the Ki (FOXM1 protein) was 190 nM. For the same compound, the “IC50 for inhibition of proliferation of breast cancer cell lines” value (breast cancer cell lines; [9]) was “submicromolar”.

`Nc1c(C(=O)Nc2ccc(F)cc2)sc2nc(-c3cccs3)cc(C(F)(F)F)c12` [FDI-6, reference compound] showed an IC50 (MCF7 cells; inhibition of cell proliferation) of 3100 nM, an IC50 (DT22 cells; inhibition of cell proliferation, read-out: IC50 DT-22) of 4800 nM and an IC50 (MDA-MB-231 cells) of 4500 nM. The Ki (FOXM1 protein) was 143 nM, the IC50 (breast cancer cell lines; [9]) was 8000 nM and the “Cellular FOXM1 and ERα proteins” value (FOXM1 and ERα) was “downregulated”. The “Blood levels after s.c. administration” value ([3]; mice, 20 mg/kg s.c.) was “very low blood levels”, the “Blood levels after oral administration” value ([3]; mice, 40 mg/kg oral, 40 mg/kg) was “undetectable” and the “Blood levels after oral administration” value ([3]; mice, 40 mg/kg oral, listed as FDI 6, 40 mg/kg) was “not detectable”.

With `CCN(CC)CCCCCCOc1ccc(C(c2ccc(OCCCCCCN(CC)CC)cc2)=C2[C@H]3C[C@@H]4C[C@@H](C[C@H]2C4)C3)cc1` [NB-51, 6,6′-(((((5r,7r)-adamantan-2-ylidene)methylene)bis(4,1-phenylene))bis(oxy))bis(N,N-diethylhexan-1-amine)] the IC50 (MCF7 cells; [5]) was 700 nM, the “Improvement in anti-proliferative activity versus monoamine NB-54” value (MCF7 cells; MCF-7 cells) was ~5 fold and the IC50 (DT22 cells; [6]) was 1500 nM. It also gave a Ki (FOXM1 protein) of 130 nM, a half-life ([3]; po, 20 mg/kg) of 20.1 h and an AUC(0-t) ([3]; po, 20 mg/kg, PK p.o. AUC0-48, mice, 20 mg/kg p.o. (footnote *)) of 1.8 µM·h. For the same compound, the AUC(0-t) ([3]; sc, 20 mg/kg, PK s.c. AUC0-48, mice, 20 mg/kg s.c. (footnote *)) was 4.7 µM·h.

With `C[N+]1(CCCCCCOc2ccc(C(c3ccc(Cl)cc3)=C3C4C[C@H]5C[C@@H](C4)C[C@H]3C5)cc2)CCCC1` [NB-63] the IC50 (MCF7 cells; [5]) was 5500 nM, the IC50 (DT22 cells; [6]) was 6000 nM and the Ki (FOXM1 protein) was 76 nM. The “Tumor growth in vivo, low doses” value [2] was “greatly suppress tumor growth”, the “Growth of DT22-Luc xenograft tumors, low doses” value ([2]; NB-115 s.c. daily 2 or 6 mg/kg, NB-63 s.c. daily 20 mg/kg until day 20, then 10 mg/kg every other day) was “suppress the growth; also recorded: effective in suppressing the growth” and the Animal body weight ([2]; same low-dose regimens as tumor study (FIG. 14B)) was “do not affect; also recorded: little impact”. For the same compound, the half-life ([3]; sc) was 25 to 40 h, the AUC(0-t) ([3]; sc, 40 mg/kg, PK s.c. AUC0-48, mice, 40 mg/kg s.c.) was 160 µM·h and the “PK p.o. AUC0-48” value ([3]; mice, 40 mg/kg p.o.) was “too low to measure”. For the same compound, the “Blood levels after oral administration” value [3, 7] was “very low levels”, the “AUC after s.c. administration relative to NB-55” value ([3]; mice, s.c.) was “approximately 3 fold” and the “Blood levels after s.c. injection” value [3, 8] was “very high blood levels”.

From US12187662B2, “FOXM1 inhibitor compositions and methods of using the same” (The Board of Trustees of the University of Illinois, priority 2018, dated 2025)
